ChEMBL document CHEMBL1129085
Active and inactive are the calls of the source. No cut-off for these calls is given here.

Key:
[1] = target: Estrogen receptor (Rattus norvegicus) (UniProt P06211+Q62986); assay: Binding affinity for rat uterine estrogen receptor relative to estradiol; type: protein assay
[2] = target: T1, Estrogen receptor (Mus musculus) (UniProt O08537+P19785)
Description: Anti-uterotropic effect as inhibition of 0.06 ug/injection estrone-induced uterine weight gain in mice at 10 ug/injection dose; No

[3] = target: T1, Estrogen receptor (Mus musculus); assay: Uterotrophic effect in mice at 10 ug/injection dose; No; type: functional, tissue-based; settings: Uterus
[4] = target: T1, Estrogen receptor (Mus musculus); assay: Anti-uterotropic effect as inhibition of 0.06 ug/injection estrone-induced uterine weight gain in mice at 10 ug/injection dose; Yes; type: functional

T1 sequence (O08537 whole entry, looked up): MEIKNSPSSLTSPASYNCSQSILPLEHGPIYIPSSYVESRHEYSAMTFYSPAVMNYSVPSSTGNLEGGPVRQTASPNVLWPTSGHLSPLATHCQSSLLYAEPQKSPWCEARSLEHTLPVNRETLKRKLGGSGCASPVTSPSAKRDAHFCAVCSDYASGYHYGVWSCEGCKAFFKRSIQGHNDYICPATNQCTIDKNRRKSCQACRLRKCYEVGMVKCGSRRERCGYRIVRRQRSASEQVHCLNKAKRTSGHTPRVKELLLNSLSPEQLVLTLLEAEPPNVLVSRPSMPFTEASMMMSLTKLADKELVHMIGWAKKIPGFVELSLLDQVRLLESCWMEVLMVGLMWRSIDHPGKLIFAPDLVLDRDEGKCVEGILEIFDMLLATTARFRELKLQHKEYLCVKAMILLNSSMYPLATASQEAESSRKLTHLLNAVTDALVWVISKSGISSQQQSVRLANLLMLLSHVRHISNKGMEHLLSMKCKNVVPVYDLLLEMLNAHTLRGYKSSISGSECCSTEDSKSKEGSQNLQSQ
T1 sequence (P19785 whole entry, looked up): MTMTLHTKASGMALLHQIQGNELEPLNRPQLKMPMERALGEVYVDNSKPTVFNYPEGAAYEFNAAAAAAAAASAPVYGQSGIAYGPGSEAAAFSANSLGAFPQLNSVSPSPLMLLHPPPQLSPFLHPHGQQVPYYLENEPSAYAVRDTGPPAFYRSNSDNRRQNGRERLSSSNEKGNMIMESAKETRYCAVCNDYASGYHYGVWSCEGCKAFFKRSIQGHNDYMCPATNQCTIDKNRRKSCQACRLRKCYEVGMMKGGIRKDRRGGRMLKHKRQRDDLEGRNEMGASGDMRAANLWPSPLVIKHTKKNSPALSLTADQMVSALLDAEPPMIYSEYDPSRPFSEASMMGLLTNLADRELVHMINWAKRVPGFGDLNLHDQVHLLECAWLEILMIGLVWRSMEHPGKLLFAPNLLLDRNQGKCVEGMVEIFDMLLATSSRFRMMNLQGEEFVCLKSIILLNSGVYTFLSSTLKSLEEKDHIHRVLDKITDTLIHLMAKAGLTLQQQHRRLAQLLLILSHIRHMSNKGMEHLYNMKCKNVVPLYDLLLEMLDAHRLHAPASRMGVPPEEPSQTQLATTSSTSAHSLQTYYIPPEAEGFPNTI

| Compound | RBA [1] | Antiuterotrophic activity [2] | Uterotrophic activity [3] | Antiuterotrophic activity [4] |
| --- | --- | --- | --- | --- |
| CCCCN(C)C(=O)CCCCCCCCC1C[C@H](O)[C@@]2(C)CC[C@@H]3c4ccc(O)cc4CC[C@H]3[C@H]12 (some centres not stated) | < 0.001% | inactive | inactive | – |
| CCCCN(C)C(=O)CCCCCCCCCC[C@@H]1Cc2cc(O)ccc2[C@H]2CC[C@]3(C)[C@@H](O)CC[C@H]3[C@H]12 | 1.2% | – | inactive | inactive |
| CCCCN(C)C(=O)CCCCCCCCCC[C@]1(O)CC[C@H]2[C@@H]3CCc4cc(O)ccc4[C@H]3CC[C@@]21C | 0.01% | inactive | inactive | – |
| CCCCN(C)C(=O)CCCCCCCCCCCC[C@H]1C[C@H](O)[C@@]2(C)CC[C@@H]3c4ccc(O)cc4CC[C@H]3[C@H]12 | < 0.001% | inactive | inactive | – |

Now from value to molecule, other results behind:

| RBA [1] | Antiuterotrophic activity [2] | Uterotrophic activity [3] | Compound | Antiuterotrophic activity [4] |
| --- | --- | --- | --- | --- |
| 0.05% | inactive | inactive | CCCCN(C)C(=O)CCCCCCCCCC[C@H]1C[C@H](O)[C@@]2(C)CC[C@@H]3c4ccc(O)cc4CC[C@H]3[C@H]12 | – |
| < 0.001% | – | – | CCCCN(C)C(=O)CCCCCCCCCC[C@@H]1C[C@H](O)[C@@]2(C)CC[C@@H]3c4ccc(O)cc4CC[C@H]3[C@H]12 | – |
| 0.001% | inactive | inactive | CCCCN(C)C(=O)CCCCCCCCCCC1C[C@H](O)[C@@]2(C)CC[C@@H]3c4ccc(O)cc4CC[C@H]3[C@H]12 (some centres not stated) | – |
| < 0.001% | inactive | inactive | CCCCN(C)C(=O)CCCCCCCCCCCC[C@@H]1C[C@H](O)[C@@]2(C)CC[C@@H]3c4ccc(O)cc4CC[C@H]3[C@H]12 | – |
